In ChEMBL document CHEMBL3352353, “Dicarba analogues of α-conotoxin RgIA. Structure, stability, and activity at potential pain targets” (J Med Chem, 2014):
pIC50: −log10 of the molar value. Calls of active or inactive are those of the source. No cut-off for these calls is given here. Positions of bridges follow the written chain, without caps; N, C: chain ends. Non-standard residues stand in square brackets, D forms with d. Residues, ends and D or L forms follow the SMILES beside them. AllylGly = C=CC[C@H](N)C(=O)O

Legend:
[1] = biological target: T1, GABA-B receptor (Homo sapiens) (UniProt Q9UBS5+O75899); assay: Inhibition of human GABAB R1/R2 receptor expressed in HEK293 cells co-expressing human Cav2.2 alpha1B/alpha2delta1/beta3 channel assessed as inhibition of depolarization-activated Ba2+ current at 200 nM by whole cell patch clamp technique relative to control; type: cell-based
[2] = biological target: T2, Nicotinic acetylcholine receptor alpha9/alpha10 (Rattus norvegicus) (UniProt P43144+Q9JLB5); assay: (§1) Inhibition of rat alpha9alpha10 nAChR expressed in Xenopus oocytes assessed as inhibition of Ach-evoked current after 5 mins by voltage-clamp technique; type: cell-based
[3] = biological target: T3, Neuronal acetylcholine receptor subunit alpha-7 (Homo sapiens, UniProt P36544); assay: Inhibition of human alpha7 nAChR expressed in Xenopus oocytes assessed as inhibition of Ach-evoked current after 5 mins by voltage-clamp technique; type: cell-based
T3 sequence (P36544 whole entry): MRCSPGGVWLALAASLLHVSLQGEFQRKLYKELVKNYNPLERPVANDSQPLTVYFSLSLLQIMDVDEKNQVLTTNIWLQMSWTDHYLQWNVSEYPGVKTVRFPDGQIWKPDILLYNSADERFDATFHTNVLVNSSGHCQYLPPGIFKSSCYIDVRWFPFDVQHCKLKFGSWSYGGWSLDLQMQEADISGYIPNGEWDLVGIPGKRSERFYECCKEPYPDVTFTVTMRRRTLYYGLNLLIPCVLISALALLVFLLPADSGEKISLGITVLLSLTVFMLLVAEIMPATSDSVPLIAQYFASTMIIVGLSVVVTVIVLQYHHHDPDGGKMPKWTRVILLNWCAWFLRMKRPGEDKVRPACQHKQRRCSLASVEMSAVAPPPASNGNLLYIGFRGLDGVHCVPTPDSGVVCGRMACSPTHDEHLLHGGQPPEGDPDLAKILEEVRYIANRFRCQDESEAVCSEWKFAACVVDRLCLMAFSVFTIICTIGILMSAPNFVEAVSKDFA

[4] = biological target: Voltage-dependent N-type calcium channel subunit alpha-1B (Rattus norvegicus) (UniProt Q02294); assay: Inhibition of N-type Ca channel in Wistar rat DRG neuron at 100 nM by whole cell patch clamp technique relative to control
Sequence of Voltage-dependent N-type calcium channel subunit alpha-1B (Rattus norvegicus) (Q02294 whole entry, looked up): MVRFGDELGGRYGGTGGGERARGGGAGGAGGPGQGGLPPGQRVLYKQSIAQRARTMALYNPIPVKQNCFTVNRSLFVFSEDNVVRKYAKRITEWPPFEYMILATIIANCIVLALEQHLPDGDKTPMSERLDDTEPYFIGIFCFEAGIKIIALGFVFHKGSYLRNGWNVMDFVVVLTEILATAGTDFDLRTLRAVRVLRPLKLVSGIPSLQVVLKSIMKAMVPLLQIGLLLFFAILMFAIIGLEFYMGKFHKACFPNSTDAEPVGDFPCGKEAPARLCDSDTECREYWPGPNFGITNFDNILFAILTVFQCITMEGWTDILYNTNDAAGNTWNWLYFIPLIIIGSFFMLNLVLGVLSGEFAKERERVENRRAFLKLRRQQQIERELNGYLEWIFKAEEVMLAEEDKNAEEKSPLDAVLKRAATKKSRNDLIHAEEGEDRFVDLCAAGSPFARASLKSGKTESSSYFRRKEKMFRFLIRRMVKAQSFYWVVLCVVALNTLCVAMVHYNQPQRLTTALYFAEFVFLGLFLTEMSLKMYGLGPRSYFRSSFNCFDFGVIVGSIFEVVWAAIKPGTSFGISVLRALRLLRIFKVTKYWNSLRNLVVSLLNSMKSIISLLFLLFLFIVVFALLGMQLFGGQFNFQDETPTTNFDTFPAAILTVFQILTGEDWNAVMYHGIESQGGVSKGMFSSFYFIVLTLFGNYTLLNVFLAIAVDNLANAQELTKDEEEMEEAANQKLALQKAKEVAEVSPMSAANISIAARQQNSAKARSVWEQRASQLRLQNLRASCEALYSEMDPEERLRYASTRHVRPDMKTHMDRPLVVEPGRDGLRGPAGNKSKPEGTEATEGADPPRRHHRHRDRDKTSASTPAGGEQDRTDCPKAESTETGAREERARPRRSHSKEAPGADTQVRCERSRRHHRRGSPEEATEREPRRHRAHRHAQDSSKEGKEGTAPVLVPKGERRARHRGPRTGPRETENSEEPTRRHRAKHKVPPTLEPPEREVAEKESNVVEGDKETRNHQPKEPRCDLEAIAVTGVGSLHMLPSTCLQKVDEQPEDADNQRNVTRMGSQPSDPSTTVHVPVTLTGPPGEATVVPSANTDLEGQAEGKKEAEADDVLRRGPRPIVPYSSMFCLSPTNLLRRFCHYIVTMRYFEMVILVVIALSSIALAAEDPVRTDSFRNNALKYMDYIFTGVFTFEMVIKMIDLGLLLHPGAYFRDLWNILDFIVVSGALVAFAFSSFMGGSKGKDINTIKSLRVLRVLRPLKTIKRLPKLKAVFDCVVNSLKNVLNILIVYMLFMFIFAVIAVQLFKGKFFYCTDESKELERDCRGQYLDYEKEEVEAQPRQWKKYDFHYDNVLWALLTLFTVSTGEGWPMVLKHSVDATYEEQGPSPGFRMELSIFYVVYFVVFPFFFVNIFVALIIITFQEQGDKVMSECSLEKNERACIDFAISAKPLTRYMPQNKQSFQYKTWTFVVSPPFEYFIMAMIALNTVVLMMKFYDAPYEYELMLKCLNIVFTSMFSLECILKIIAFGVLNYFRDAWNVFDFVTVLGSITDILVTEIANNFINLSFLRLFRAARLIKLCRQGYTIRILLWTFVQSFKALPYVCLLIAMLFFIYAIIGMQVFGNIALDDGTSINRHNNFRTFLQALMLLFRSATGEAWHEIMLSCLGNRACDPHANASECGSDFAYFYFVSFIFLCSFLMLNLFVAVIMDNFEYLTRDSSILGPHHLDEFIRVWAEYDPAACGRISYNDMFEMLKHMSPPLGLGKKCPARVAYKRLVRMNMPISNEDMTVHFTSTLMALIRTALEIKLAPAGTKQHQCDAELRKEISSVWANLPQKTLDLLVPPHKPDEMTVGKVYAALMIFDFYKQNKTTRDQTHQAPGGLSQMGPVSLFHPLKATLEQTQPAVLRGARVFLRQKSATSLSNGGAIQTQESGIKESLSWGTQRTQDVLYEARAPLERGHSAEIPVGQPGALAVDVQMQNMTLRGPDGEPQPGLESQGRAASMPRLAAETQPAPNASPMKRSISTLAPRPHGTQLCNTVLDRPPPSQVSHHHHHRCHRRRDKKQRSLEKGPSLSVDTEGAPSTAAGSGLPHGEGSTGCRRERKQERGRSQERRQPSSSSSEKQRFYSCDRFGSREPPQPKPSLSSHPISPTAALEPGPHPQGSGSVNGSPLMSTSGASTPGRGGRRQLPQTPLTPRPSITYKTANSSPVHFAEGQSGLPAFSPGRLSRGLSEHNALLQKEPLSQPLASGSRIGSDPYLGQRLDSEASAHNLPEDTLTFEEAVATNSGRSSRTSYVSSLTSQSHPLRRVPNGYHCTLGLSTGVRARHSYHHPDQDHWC

[5] = biological target: T2, Nicotinic acetylcholine receptor alpha9/alpha10 (Rattus norvegicus); assay: Inhibition of rat alpha9alpha10 nAChR expressed in Xenopus oocytes assessed as inhibition of Ach-evoked current at 30 uM after 5 mins by voltage-clamp technique; type: cell-based
[6] = Metabolic stability in human serum assessed as compound remaining at 3 mM after 1 hr by RP-HPLC analysis; type: ADME, cell-free; conditions: read-out: Stability
[7] = Metabolic stability in human serum assessed as compound remaining at 3 mM after 24 hrs by RP-HPLC analysis; type: ADME, cell-free; conditions: read-out: Stability
[8] = biological target: T1, GABA-B receptor (Homo sapiens); assay: Inhibition of human GABAB R1/R2 receptor expressed in HEK293 cells co-expressing human Cav2.2 alpha1B/alpha2delta1/beta3 channel assessed as inhibition of depolarization-activated Ba2+ current at 1 uM followed by compound washout by whole cell patch clamp technique relative to control; type: cell-based
[9] = biological target: T1, GABA-B receptor (Homo sapiens); assay: Inhibition of human GABAB R1/R2 receptor expressed in HEK293 cells co-expressing human Cav2.2 alpha1B/alpha2delta1/beta3 channel assessed as inhibition of depolarization-activated Ba2+ current at 1 uM by whole cell patch clamp technique relative to control; type: cell-based
[10] = biological target: T1, GABA-B receptor (Homo sapiens); assay: Inhibition of human GABAB R1/R2 receptor expressed in HEK293 cells co-expressing human Cav2.2 alpha1B/alpha2delta1/beta3 channel assessed as inhibition of depolarization-activated Ba2+ current by whole cell patch clamp technique relative to control; type: cell-based
[11] = biological target: T4, Voltage-dependent N-type calcium channel subunit alpha-1B/Voltage-dependent calcium channel subunit alpha-2/delta-1/Voltage-dependent L-type calcium channel subunit beta-3 (Homo sapiens) (UniProt P54289+Q00975+P54284); assay: Inhibition of human GABAB R1/R2 receptor expressed in HEK293 cells co-expressing human Cav2.2 alpha1B/alpha2delta1/beta3 channel assessed as inhibition of depolarization-activated Ba2+ current at 50 uM followed by compound washout by whole cell patch clamp technique relative to control; type: cell-based
[12] = biological target: T1, GABA-B receptor (Homo sapiens); assay: Inhibition of human GABAB R1/R2 receptor expressed in HEK293 cells co-expressing human Cav2.2 alpha1B/alpha2delta1/beta3 channel assessed as inhibition of depolarization-activated Ba2+ current depolarization-activated Ba2+ current at 50 uM by whole cell patch clamp technique relative to control; type: cell-based
[13] = biological target: T4, Voltage-dependent N-type calcium channel subunit alpha-1B/Voltage-dependent calcium channel subunit alpha-2/delta-1/Voltage-dependent L-type calcium channel subunit beta-3 (Homo sapiens); assay: Inhibition of human Cav2.2 alpha1B/alpha2delta1/beta3 channel expressed in HEK293 cells assessed as inhibition of depolarization-activated Ba2+ current at 1 uM by whole cell patch clamp technique relative to control; type: cell-based
[14] = biological target: Voltage-dependent N-type calcium channel subunit alpha-1B (Rattus norvegicus) (UniProt Q02294); assay: Inhibition of N-type Ca channel in Wistar rat DRG neuron at 1 nM by whole cell patch clamp technique relative to control
[15] = biological target: Nicotinic acetylcholine receptor alpha9/alpha10 (Rattus norvegicus, UniProt P43144+Q9JLB5); assay: as §1; type: cell-based
Sequence of Nicotinic acetylcholine receptor alpha9/alpha10 (P43144 whole entry): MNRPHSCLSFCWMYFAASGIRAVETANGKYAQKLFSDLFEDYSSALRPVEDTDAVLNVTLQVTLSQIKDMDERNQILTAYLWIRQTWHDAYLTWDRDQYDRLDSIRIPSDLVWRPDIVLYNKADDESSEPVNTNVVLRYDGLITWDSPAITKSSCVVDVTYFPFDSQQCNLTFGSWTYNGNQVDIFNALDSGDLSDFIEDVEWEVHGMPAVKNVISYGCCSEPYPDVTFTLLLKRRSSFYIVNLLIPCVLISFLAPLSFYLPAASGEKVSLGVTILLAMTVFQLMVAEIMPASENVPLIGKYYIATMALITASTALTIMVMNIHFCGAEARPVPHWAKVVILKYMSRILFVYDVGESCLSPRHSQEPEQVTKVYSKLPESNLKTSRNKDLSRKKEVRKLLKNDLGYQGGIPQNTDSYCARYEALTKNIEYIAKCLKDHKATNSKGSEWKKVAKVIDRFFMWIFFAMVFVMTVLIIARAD
Sequence of Nicotinic acetylcholine receptor alpha9/alpha10 (Q9JLB5 whole entry): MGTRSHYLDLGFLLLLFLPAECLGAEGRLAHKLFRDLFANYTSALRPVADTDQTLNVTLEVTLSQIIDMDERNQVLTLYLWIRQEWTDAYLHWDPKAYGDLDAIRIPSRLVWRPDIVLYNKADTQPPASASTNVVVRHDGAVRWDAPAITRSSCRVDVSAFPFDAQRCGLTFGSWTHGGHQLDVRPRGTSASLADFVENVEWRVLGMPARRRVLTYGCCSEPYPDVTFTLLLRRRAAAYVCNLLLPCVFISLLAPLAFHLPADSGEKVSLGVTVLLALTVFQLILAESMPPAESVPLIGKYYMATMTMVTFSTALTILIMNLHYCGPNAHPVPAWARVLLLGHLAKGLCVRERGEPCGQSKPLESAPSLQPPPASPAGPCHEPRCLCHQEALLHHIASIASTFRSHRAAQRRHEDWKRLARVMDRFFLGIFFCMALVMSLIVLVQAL

[16] = biological target: T2, Nicotinic acetylcholine receptor alpha9/alpha10 (Rattus norvegicus); assay: Inhibition of rat alpha9alpha10 nAChR expressed in Xenopus oocytes assessed as inhibition of Ach-evoked current at 3 uM after 5 mins by voltage-clamp technique; type: cell-based
[17] = biological target: T3, Neuronal acetylcholine receptor subunit alpha-7; assay: Inhibition of human alpha7 nAChR expressed in Xenopus oocytes assessed as inhibition of Ach-evoked current at 3 uM after 5 mins by voltage-clamp technique; type: cell-based

Row | SMILES | pIC50 [3] | inhibition [4] | inhibition [5] | inhibition [9] | inhibition [14] | pIC50 [15] | inhibition [16] [%] | further results
1 | N=C(N)NCCC[C@H](NC(=O)[C@@H]1CSSC[C@@H]2NC(=O)[C@@H](NC(=O)CN)CSSC[C@H](NC(=O)[C@H](CCCNC(=N)N)NC(=O)[C@@H]3CCCN3C(=O)[C@H](CC(=O)O)NC(=O)[C@H](CO)NC2=O)C(=O)N[C@@H](CCCNC(=N)N)C(=O)N[C@@H](Cc2ccc(O)cc2)C(=O)N[C@@H](CCCNC(=N)N)C(=O)N1)C(=O)O | 5.48 | 60.6% | – | – | – | – | – | inhibition [1]: 20%; inhibition [2]: Dose-dependent effect; inhibition [3]: Dose-dependent effect
2 | N=C(N)NCCC[C@H](NC(=O)[C@@H]1CSSC[C@@H]2NC(=O)[C@@H](NC(=O)CN)C/C=C/C[C@H](NC(=O)[C@H](CCCNC(=N)N)NC(=O)[C@@H]3CCCN3C(=O)[C@H](CC(=O)O)NC(=O)[C@H](CO)NC2=O)C(=O)N[C@@H](CCCNC(=N)N)C(=O)N[C@@H](Cc2ccc(O)cc2)C(=O)N[C@@H](CCCNC(=N)N)C(=O)N1)C(=O)O | – | Active | inactive | – | – | – | – | –
3 | N=C(N)NCCC[C@H](NC(=O)[C@@H]1CSSC[C@@H]2NC(=O)[C@@H](NC(=O)CN)C/C=C\C[C@H](NC(=O)[C@H](CCCNC(=N)N)NC(=O)[C@@H]3CCCN3C(=O)[C@H](CC(=O)O)NC(=O)[C@H](CO)NC2=O)C(=O)N[C@@H](CCCNC(=N)N)C(=O)N[C@@H](Cc2ccc(O)cc2)C(=O)N[C@@H](CCCNC(=N)N)C(=O)N1)C(=O)O | – | Active | inactive | 35% | – | – | – | remaining at 1 h, 3000 µM [6]: 30%; remaining at 24 h, 3000 µM [7]: 2%; inhibition [8]: Active; inhibition [10]: Dose-dependent effect; inhibition [11]: inactive; inhibition [12]: Active; inhibition [13]: inactive
4 | N=C(N)NCCC[C@H](NC(=O)[C@@H]1C/C=C/C[C@@H]2NC(=O)[C@@H](NC(=O)CN)CSSC[C@H](NC(=O)[C@H](CCCNC(=N)N)NC(=O)[C@@H]3CCCN3C(=O)[C@H](CC(=O)O)NC(=O)[C@H](CO)NC2=O)C(=O)N[C@@H](CCCNC(=N)N)C(=O)N[C@@H](Cc2ccc(O)cc2)C(=O)N[C@@H](CCCNC(=N)N)C(=O)N1)C(=O)O (H-GC[AllylGly]SDPRCRYR[AllylGly]R-OH; disulfide 2-8; staple (E) 3-12) | 5.40 | – | – | inactive | inactive | 5.94 | 35.4 | –
5 | N=C(N)NCCC[C@H](NC(=O)[C@@H]1C/C=C\C[C@@H]2NC(=O)[C@@H](NC(=O)CN)CSSC[C@H](NC(=O)[C@H](CCCNC(=N)N)NC(=O)[C@@H]3CCCN3C(=O)[C@H](CC(=O)O)NC(=O)[C@H](CO)NC2=O)C(=O)N[C@@H](CCCNC(=N)N)C(=O)N[C@@H](Cc2ccc(O)cc2)C(=O)N[C@@H](CCCNC(=N)N)C(=O)N1)C(=O)O (H-GC[AllylGly]SDPRCRYR[AllylGly]R-OH; disulfide 2-8; staple (Z) 3-12) | – | – | – | – | inactive | 5.83 | 31.5 | inhibition [17]: inactive
